According to PubChem BioAssay (NCI):
Several values for one entry are separate records, joined by “and”; a condition that tells them apart may be missing. Equal values may be shown once.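 Cells were grown in 96-well plates and exposed to each compound for 48 hours at five concentrations; endpoints were interpolated linearly between bracketing concentrations, or set to the highest concentration if not reached. GI50 is the concentration that inhibits growth by half. The concentration for full growth arrest is given as TGI.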

Legend:
Test in all cases: DTP human tumour cell line panel, 48 h
SNB-19 CNS = system: SNB-19 CNS
CAKI-1 renal = system: CAKI-1 renal
SNB-78 CNS = system: SNB-78 CNS
MDA-MB-435 = system: MDA-MB-435
HCC-2998 colon = system: HCC-2998 colon
SF-295 CNS = system: SF-295 CNS
HCT-15 colon = system: HCT-15 colon
MDA-MB-231 breast = system: MDA-MB-231 breast
IGROV1 ovarian = system: IGROV1 ovarian
SK-MEL-28 melanoma = system: SK-MEL-28 melanoma
MCF7 breast = system: MCF7 breast
U251 CNS = system: U251 CNS
HOP-92 NSCLC = system: HOP-92 NSCLC
M19-MEL melanoma = system: M19-MEL melanoma
UO-31 renal = system: UO-31 renal
OVCAR-8 ovarian = system: OVCAR-8 ovarian
RXF 393 renal = system: RXF 393 renal
K-562 leukemia = system: K-562 leukemia
SK-MEL-2 melanoma = system: SK-MEL-2 melanoma
HL-60(TB) leukemia = system: HL-60(TB) leukemia
786-0 renal = system: 786-0 renal
NCI-H23 lung = system: NCI-H23 lung
DLD-1 colon = system: DLD-1 colon
TK-10 renal = system: TK-10 renal
SNB-75 CNS = system: SNB-75 CNS
M14 melanoma = system: M14 melanoma
UACC-257 melanoma = system: UACC-257 melanoma
KM12 colon = system: KM12 colon
SF-268 CNS = system: SF-268 CNS
RPMI-8226 leukemia = system: RPMI-8226 leukemia
BT-549 breast = system: BT-549 breast
SK-MEL-5 melanoma = system: SK-MEL-5 melanoma
HS 578T breast = system: HS 578T breast
MOLT-4 leukemia = system: MOLT-4 leukemia
T-47D breast = system: T-47D breast
LOX IMVI melanoma = system: LOX IMVI melanoma
CCRF-CEM leukemia = system: CCRF-CEM leukemia
NCI/ADR-RES ovarian = system: NCI/ADR-RES ovarian
SR leukemia = system: SR leukemia
PC-3 prostate = system: PC-3 prostate
EKVX NSCLC = system: EKVX NSCLC
OVCAR-4 ovarian = system: OVCAR-4 ovarian
DMS 273 small cell lung = system: DMS 273 small cell lung
XF 498 CNS = system: XF 498 CNS
OVCAR-3 ovarian = system: OVCAR-3 ovarian
NCI-H460 lung = system: NCI-H460 lung
SK-OV-3 ovarian = system: SK-OV-3 ovarian
COLO 205 colon = system: COLO 205 colon
A549 NSCLC = system: A549 NSCLC
UACC-62 melanoma = system: UACC-62 melanoma
SN12C renal = system: SN12C renal
HOP-62 NSCLC = system: HOP-62 NSCLC

## COc1cccc2c1C(CO)N1C(C#N)C3CC(C(=O)O)C(C1C2)N3C (stereo not drawn)
SNB-19 CNS
  GI50: 0.212 µM
  TGI: > 15.5 µM
CAKI-1 renal
  GI50: 0.404 µM
SNB-78 CNS
  GI50: 0.334 µM
  TGI: 7.97 µM and 12 µM
MDA-MB-435
  GI50: 0.168 µM
HCC-2998 colon
  GI50: 3.14 µM
  TGI: 8.21 µM and 2.78 µM
SF-295 CNS
  GI50: 0.42 µM
  TGI: 27.2 µM
HCT-15 colon
  GI50: 0.38 µM
MDA-MB-231 breast
  GI50: 0.271 µM
  TGI: 0.933 µM and 0.521 µM
IGROV1 ovarian
  TGI: 9.67 µM and 4.64 µM
SK-MEL-28 melanoma
  GI50: 0.391 µM
  TGI: 3.83 µM and 1.88 µM
MCF7 breast
  TGI: > 44 µM
U251 CNS
  GI50: 0.0787 µM
HOP-92 NSCLC
  GI50: 0.422 µM
  TGI: 7.63 µM and > 18.4 µM
M19-MEL melanoma
  GI50: 0.256 µM
UO-31 renal
  GI50: 0.365 µM
  TGI: 4.36 µM and 2.46 µM
OVCAR-8 ovarian
  GI50: 0.372 µM
RXF 393 renal
  GI50: 0.203 µM
  TGI: 1.85 µM and 0.571 µM
K-562 leukemia
  GI50: 0.275 µM
  TGI: > 100 µM
SK-MEL-2 melanoma
  GI50: 0.139 µM
  TGI: 2.32 µM and 0.305 µM
HL-60(TB) leukemia
  GI50: 0.239 µM
  TGI: 4.53 µM and 0.811 µM
786-0 renal
  GI50: 0.236 µM
  TGI: 3.8 µM and 0.757 µM
NCI-H23 lung
  GI50: 0.222 µM
  TGI: 4.42 µM and 0.558 µM
DLD-1 colon
  TGI: 9.07 µM
TK-10 renal
  TGI: 9.27 µM
SNB-75 CNS
  GI50: 0.298 µM
  TGI: 5.42 µM and 1.99 µM
M14 melanoma
  GI50: 0.363 µM
  TGI: 6.91 µM and 1.42 µM
UACC-257 melanoma
  GI50: 0.331 µM
  TGI: 3.96 µM and 2.11 µM
KM12 colon
  GI50: 0.679 µM
  TGI: 8.3 µM and > 26 µM
SF-268 CNS
  GI50: 0.313 µM
  TGI: 8.75 µM and 57.3 µM
RPMI-8226 leukemia
  GI50: 0.0637 µM
  TGI: 3.94 µM and 1.54 µM
BT-549 breast
  TGI: 0.739 µM and 1.94 µM
SK-MEL-5 melanoma
  GI50: 0.383 µM
  TGI: 4.07 µM and 0.985 µM
HS 578T breast
  GI50: 0.538 µM
  TGI: 3.08 µM
MOLT-4 leukemia
  GI50: 0.0934 µM
T-47D breast
  GI50: 0.135 µM
LOX IMVI melanoma
  GI50: 0.254 µM
CCRF-CEM leukemia
  GI50: 0.0877 µM
  TGI: 8.55 µM and > 17 µM
NCI/ADR-RES ovarian
  GI50: 0.194 µM
  TGI: 0.549 µM and 1.12 µM
SR leukemia
  GI50: 0.0308 µM
  TGI: 7.2 µM
PC-3 prostate
  GI50: 0.462 µM
  TGI: > 100 µM
EKVX NSCLC
  GI50: 0.734 µM
  TGI: 10.6 µM
OVCAR-4 ovarian
  GI50: 0.705 µM
  TGI: 27 µM
DMS 273 small cell lung
  GI50: 0.335 µM
  TGI: 8.25 µM
XF 498 CNS
  GI50: 1.79 µM
OVCAR-3 ovarian
  GI50: 0.305 µM
NCI-H460 lung
  GI50: 1.24 µM
SK-OV-3 ovarian
  GI50: 2.6 µM
  TGI: 8.34 µM and > 31.1 µM
COLO 205 colon
  GI50: 0.112 µM
  TGI: 2.66 µM and 1.2 µM
A549 NSCLC
  GI50: 4.74 µM
UACC-62 melanoma
  GI50: 0.192 µM
  TGI: 2.23 µM and 0.452 µM
SN12C renal
  GI50: 0.373 µM
  TGI: 8.34 µM and > 17.8 µM
HOP-62 NSCLC
  TGI: 8.15 µM and 3.73 µM

## CCCCCCCCCCCCCCCCCCOP(=O)([O-])OC1CC[N+](C)(C)CC1
SNB-19 CNS
  GI50: 5.02 µM
  TGI: > 10 µM and 23.2 µM
CAKI-1 renal
  GI50: 2.03 µM
  TGI: > 10 µM and 15.6 µM
SNB-78 CNS
  TGI: 46.2 µM
MDA-MB-435
  GI50: 5.91 µM
  TGI: > 10 µM and 30.3 µM
HCC-2998 colon
  TGI: 17.3 µM
SF-295 CNS
  GI50: 3.63 µM
  TGI: > 10 µM and 18.2 µM
HCT-15 colon
  TGI: 9.86 µM and 8.72 µM
MDA-MB-231 breast
  GI50: 4.81 µM
  TGI: > 10 µM and 20.8 µM
IGROV1 ovarian
  GI50: 1.3 µM
  TGI: 4.29 µM and 10.8 µM
SK-MEL-28 melanoma
  GI50: > 10 µM
  TGI: > 10 µM and 34.4 µM
MCF7 breast
  GI50: > 10 µM
  TGI: > 10 µM and 34 µM
U251 CNS
  GI50: 4.02 µM
  TGI: > 10 µM and 26.1 µM
HOP-92 NSCLC
  GI50: 2.1 µM
  TGI: 5.32 µM and 9.79 µM
M19-MEL melanoma
  TGI: 14.8 µM
UO-31 renal
  GI50: 4.27 µM
  TGI: > 10 µM and 21.7 µM
OVCAR-8 ovarian
  GI50: > 10 µM
  TGI: > 10 µM and 28.8 µM
RXF 393 renal
  TGI: 5.55 µM and 8.04 µM
K-562 leukemia
  GI50: 3.63 µM
  TGI: > 10 µM and 39 µM
SK-MEL-2 melanoma
  GI50: 8.48 µM
  TGI: > 10 µM and 30 µM
HL-60(TB) leukemia
  GI50: > 10 µM
  TGI: > 10 µM and 6.98 µM
786-0 renal
  GI50: 2.18 µM
  TGI: 5.95 µM and 8.32 µM
NCI-H23 lung
  GI50: > 10 µM
  TGI: > 10 µM and 28.5 µM
DLD-1 colon
  TGI: 22.4 µM
TK-10 renal
  GI50: 0.535 µM
  TGI: 1.89 µM and 5.34 µM
SNB-75 CNS
  GI50: > 10 µM
  TGI: > 10 µM and 20 µM
M14 melanoma
  GI50: 1.87 µM
  TGI: 4.41 µM and 12.7 µM
UACC-257 melanoma
  GI50: > 10 µM
  TGI: > 10 µM and 45.7 µM
KM12 colon
  GI50: 1.15 µM
  TGI: 2.97 µM and 1.46 µM
SF-268 CNS
  GI50: 4.42 µM
  TGI: > 10 µM and 24.6 µM
RPMI-8226 leukemia
  GI50: 1.18 µM
  TGI: > 10 µM and 13.8 µM
BT-549 breast
  GI50: 5.76 µM
  TGI: > 10 µM and 27.5 µM
SK-MEL-5 melanoma
  TGI: 29.7 µM
HS 578T breast
  GI50: > 10 µM
  TGI: > 10 µM and 27.5 µM
MOLT-4 leukemia
  GI50: 2.15 µM
  TGI: 5.57 µM and 11.3 µM
T-47D breast
  GI50: 5.08 µM
  TGI: > 10 µM and 36.9 µM
LOX IMVI melanoma
  GI50: 3.89 µM
  TGI: > 10 µM and 22 µM
CCRF-CEM leukemia
  GI50: 2.73 µM
  TGI: 7.55 µM and 10.5 µM
NCI/ADR-RES ovarian
  GI50: > 10 µM
  TGI: > 10 µM and 28 µM
SR leukemia
  GI50: 0.87 µM
  TGI: 4.2 µM and 5.74 µM
PC-3 prostate
  GI50: 0.707 µM
  TGI: 3.46 µM and 3.75 µM
EKVX NSCLC
  GI50: > 10 µM
  TGI: > 10 µM and 26.8 µM
OVCAR-4 ovarian
  TGI: > 10 µM and 23.5 µM
DMS 273 small cell lung
  TGI: 14.9 µM
XF 498 CNS
  TGI: 29.1 µM
OVCAR-3 ovarian
  GI50: > 10 µM
  TGI: > 10 µM and 23 µM
NCI-H460 lung
  GI50: 2.85 µM
  TGI: > 10 µM and 7.65 µM
SK-OV-3 ovarian
  TGI: > 10 µM and 19.1 µM
COLO 205 colon
  GI50: 1.42 µM
  TGI: 9.43 µM and 15.8 µM
A549 NSCLC
  GI50: 6.98 µM
  TGI: > 10 µM and 24.6 µM
UACC-62 melanoma
  GI50: 1.17 µM
  TGI: > 10 µM and 22.5 µM
SN12C renal
  GI50: 3.87 µM
  TGI: > 10 µM and 15.7 µM
HOP-62 NSCLC
  GI50: 3.2 µM
  TGI: > 10 µM and 20.7 µM
